According to patent US9688653B2, “Ethoxyphenyl thienyl compounds and methods for the treatment of bacterial infections” (Duke University, priority 2013, dated 2017):
pIC50: −log10 of the molar value.

What was measured:
[1] = tested on: E. coli K1 strain UTI89; test: microbe, parasite or virus in culture; conditions: read-out: K1 phage IC50, n = 3
Source text: The ability of the […] to bind to bacterial capsule, infect, and lyse E. coli UT189 was used as the primary assay to identify the effects of screened compounds on bacterial capsule formation. The phenotypic end-point assay measured the fluorescence generated by cellular processing of Alamar Blue as a direct indicator of cell viability. A total of […] compounds were screened using the primary assay. […] Hits were further evaluated using […] secondary assays for alternative measurement of compound-induced reduction in bacterial capsule formation (secondary assays 1 and 2) and specificity (secondary assays 3 and 4). Confirmed actives with an SI>5 were further investigated and subjected to chemical optimization, followed by secondary assay evaluation. Secondary assays more closely characterized the ability of the compounds to reduce bacterial capsule formation and can be used to examine the mechanism of action of the compounds. The combination of primary assay (to measure capsule reduction), counter assay (for general eukaryotic cell toxicity) and secondary assay (to measure reduction in capsule formation and specificity) were combined to allow a determination of probe efficacy, selectivity, and specificity.
A. Primary Assay: Screening for Inhibitors of Bacterial Capsule Biogenesis.
Primary assay: An end-point assay to measure the amount of K1 phage-induced bacterial cell lysis was employed to determine the compound effect on capsule biogenesis. K1 bacteriophage specifically binds the bacterial capsule during the initial stages of infection. Bacteria without capsule cannot be infected and lysed by the bacteriophage. […] A total of 338,740 compounds were screened at 100 μM in the primary screen Inhibition of phage lysis was calculated relative to the mean of the bacterial (positive) control on each microtiter plate. […] For calculation of S/B/Z value, and CV, the following formulae (in which SD stands for standard deviation) were used: S/B=mean signal/mean background; Z=1-3SD of sample+3SD of control mean of sample−mean of control; % CV=(SD mean signal/mean signal)×100.
IC50 values were calculated using a 4 parameter Levenburg-Marquardt algorithm, with the maximum and minimum locked at 0 and 100 respectively.
Primary assay: The primary assay was conducted in the 1,536 well plate format. Bacterial cultures of E. coli K1 strain UTI89 (cystitis isolate) and isogenic capsule mutant strains (as controls for phage infection) were grown and prepared at the screening center immediately prior to use. Overnight starting cultures of UTI89 were grown at 37° C., and inoculated into 1 liter of LB (starting OD600˜0.03), which was sufficient for screening 40 plates (including ˜10% waste) and ˜40,000 compounds as single points.
Control wells contained UTI89 (wt K1) with 0.5% DMSO as a simulated positive control; UTI89 with 0.5% DMSO and tetracycline for a negative growth control; and media plus vehicle control. 50 mL of LB Broth was inoculated with stock 150 μL E. coli UT189 and grown overnight at 37° C. The next day, cultures were diluted 1:75 in 1 L of LB Broth containing 0.5% DMSO. 3 μL of this culture was added to each plate well, and plates were incubated, inverted, at 37° C. for 2 hr. The K1F bacteriophage stock was diluted 1:8 in LB Broth containing 0.5% DMSO, and 1.5 μL of diluted phage (or media only) was added to the pre-plated test compound wells and appropriate control wells. The plates were centrifuged briefly, and then were incubated, inverted, at 37° C. for an additional 2 hr. Afterward, Alamar Blue reagent (Invitrogen, #DAL1100) was diluted 1:2 with LB broth and 1 μL was added to each plate well.

[2] = tested on: Bladder carcinoma 5637 cells; test: Cytotoxicity counterscreen, CellTiter Glo, 72 hr; format: cell-based, human
Procedure: B. Counterscreen: Cytotoxicity Screening for Potential Inhibitors of Bacterial Capsule Biogenesis.
Purpose: This cell-based assay measures the cytotoxicity of compounds in bladder carcinoma 5637 cells using luminescent cell viability assay readout.
Cytotoxicity assay: The cytotoxicity assay was performed as described in Section 6: Appendix. Hit cytotoxicity and the 50% toxic concentration (CC50) was determined and compared to the IC50 to calculate the selectivity index.
Assay Description: Cytotoxicity: Dose response testing (dose range=300-0.58 μM) established the hit cytotoxicity data. Compounds were plated in 384-well microplates in a stacked dose response format using the same doses used in the efficacy dose response. Bladder carcinoma 5637 cells were added to the compounds, and 72 hr later cell viability was measured using CellTiter Glo (38). Hit cytotoxicity and the 50% toxic concentration (TC50) was determined and compared to the IC50 to calculate the therapeutic index. Test compounds are serially diluted in a plate to plate matrix or stacked plate matrix. All 320 compounds in a source plate are diluted together resulting in a 10 point dose response dilution series. It is visualized as a serial dilution series proceeding vertically through a stack of plates with the high dose plate on top and the low dose plate on the bottom.
Control Drug: Hyamine was used as a positive cytotoxic control. All wells contained 0.5% DMSO.
Preparation of Bladder carcinoma 5637 cells: Cells are harvested and resuspended to 80,000 cells per ml in Complete DMEM/F12®.
Endpoint Read: Following the three day incubation period, the assay plates were equilibrated to room temperature for 30 min and an equal volume (30 μL) of Cell Titer-Glo® reagent (Promega Inc.) is added to each well using a WellMate™ (Matrix, Hudson, N.H.) and plates are incubated for an additional 10 min at room temperature. At the end of the incubation, luminescence is measured using a Perkin Elmer Envision™ multi-label reader (PerkinElmer, Wellesley, Mass.) with an integration time of 0.1 s.
Cytotoxicity. Testing was performed essentially as previously described. Concentration-response testing was performed over a range 0.58-300 μM in a […] well plate format. Bladder carcinoma 5637 cells (ATCC HTB-9) were added to the compounds, and 72 hrs later cell viability was measured using CellTiter Glo (Promega). The 50% toxic concentration (TC50) was determined and compared to the IC50 to calculate the therapeutic index. Hyamine was used as a positive cytotoxic control. All wells contained 0.5% DMSO.

[3] = tested on: E. coli K1 strain UTI89; test: Secondary assay 2: T7 phage-mediated lysis assay; format: cell-based, Escherichia coli; conditions: n = 2, read-out: T7 phage IC50
Source text: D. Secondary Assay 2: Screening for Inhibitors of Bacterial Capsule Biogenesis—T7 Lysis Inhibition
Purpose: This secondary assay measures the compound mechanistic specificity for inhibition of bacterial capsule formation and excludes inhibitors of phage replication using a different bacteriophage (T7). In this assay, an increase in phage-induced lysis correlates to a decrease in capsule formation.
Purpose: This secondary assay measures the compound mechanistic specificity for inhibition of bacterial capsule formation using a different bacterial phage (T7). In this assay, an increase in phage-induced lysis correlates to a decrease in capsule formation.
Assay Description: T7 phage-mediated lysis assay: This assay determined if the mechanism of action of the compound is inhibition of phage infectivity or replication. The T7 phage has a nearly identical genome to K1F, without encoding an endosialidase. Its cycle of replication is similar to that of K1F as well. However, T7 entry into E. coli is inhibited by K capsules. This secondary assay was conducted in the 96 well plate format. […] Compounds were added in quadruplicate to plates in a concentration dependent manner in the range of 100-0.39 μM, followed by addition of 100 μL of bacterial culture. 1% DMSO (final well concentration) was included. The plates were tape sealed and shaken vigorously for 1.5 hr. An initial OD600 reading was measured to identify compounds that cause growth retardation or bacterial killing in the absence of phage. Next, T7 phage (5 μL) was added to all of the test wells. The plates were resealed and shaken vigorously at 37° C., and measurements of OD600 for phage-mediated lysis were taken after 3 hr. True inhibitors of capsule yielded bacteria that were susceptible to T7 phage and lysed within 2 hr of the addition of phage. […] The positive control drug C7 (100 μM final well concentration) was used in this screen.
T7 phage counter assay. This secondary assay was performed as previously described and was used to distinguish compounds with phage inhibitory effects from true polysaccharide capsule inhibitors. […] Thus, the presence of a capsule inhibits T7-mediated lysis. In this assay, an increase in phage-induced lysis correlates to a decrease in capsule formation. True inhibitors of capsule yielded bacteria that were susceptible to T7 phage and lysed within 2 hr of the addition of phage. […] The positive control molecule C7 (100 μM final well concentration) was used in this screen.

[4] = first round of synthetic analogues

SMILES | pIC50 ([1]; purchased analogue series) | pIC50 [2] | pIC50 ([3]; purchased analogue series) | pIC50 [1, 4] | pIC50 [3, 4]
O=C(Nc1cc(-c2ccccc2)sc1C(=O)O)c1cccs1 [compound 9945365] | 4.12 | 4.21 | 5.16 | – | –
CCOc1ccc(-c2cc(NC(=O)c3c(F)cccc3F)c(C(=O)OC)s2)cc1 [compound 16012549] | < 4.00 | < 3.52 | – | – | –
O=C(O)c1sc(-c2ccccc2)cc1NC(=O)C1CCCCC1 [compound 16393057] | < 4.00 | 3.94 | 4.19 | – | –
O=C(O)c1sc(-c2ccccc2)cc1NC(=O)C1CCCC1 [compound 16393058] | < 4.00 | 3.77 | 4.25 | – | –
Cc1c(C(=O)Nc2cc(-c3ccccc3)sc2C(=O)O)oc2ccccc12 [compound 17546661] | < 4.00 | 4.31 | 4.48 | – | –
Cc1ccc(C(=O)Nc2cc(-c3ccccc3)sc2C(=O)O)s1 [compound 17546665] | < 4.00 | 4.20 | 4.53 | – | –
O=C(Nc1cc(-c2ccccc2)sc1C(=O)O)c1ccc(Cl)s1 [compound 17547200] | < 4.00 | 4.15 | 4.82 | – | –
O=C(Nc1cc(-c2ccccc2)sc1C(=O)O)c1cc2ccccc2o1 [compound 17548073] | < 4.00 | 3.78 | 5.17 | – | –
CCOc1ccc(-c2cc(NC(=O)c3cccc(F)c3)c(C(=O)O)s2)cc1 [compound 23602076] | – | 4.21 | – | 4.83 | 5.58
O=C(Nc1cc(-c2ccccc2)sc1C(=O)O)c1cccc(Cl)c1 [compound 23602077] | 4.07 | 4.36 | 4.46 | – | –
CCOc1ccc(-c2cc(NC(=O)c3ccc(OC)c(OC)c3)c(C(=O)O)s2)cc1 [compound 23602082] | 4.24 | 4.14 | 5.10 | – | –
CCOc1ccc(-c2cc(NC(=O)c3ccc(Br)o3)c(C(=O)O)s2)cc1 [compound 23602086] | – | 4.16 | – | – | > 6.20
CCOc1ccc(-c2cc(NC(=O)c3ccc(Br)s3)c(C(=O)O)s2)cc1 [compound 53470415] | – | 4.30 | – | 4.77 | 5.48
O=C(Nc1cc(-c2ccc(C(F)(F)F)cc2)sc1C(=O)O)c1ccc(Br)o1 [compound 53470416] | – | 4.32 | – | 4.91 | 5.59
